Data as given in article PMC10382589, “In vitro and in vivo antiplasmodial evaluation of sugar-modified nucleoside analogues” (Scientific Reports, 2023).

system: Pf3D7 chloroquine-sensitive strain; experiment: SYBR green I based fluorescence growth inhibition assay, Pf3D7; assay type: cell-based, Plasmodium falciparum; conditions: Plasmodium falciparum, read-out: IC50 (µM) against Pf3D7
Method: Growth of one intraerythrocytic cycle of Pf was monitored after treated with compounds whereas untreated parasites were considered as control.
The percent growth inhibition of the parasites was evaluated by SYBR Green assay.
Pf3D7 and PfRKL-9 were cultured by following procedure reported by Trager and Jensen[33]. […] In order to examine the morphological changes in the parasite, a blood film must be prepared. A thin blood film was air-dried, fixed with methanol, and allowed to dry before staining. […] Light microscopy analysis was carried out to evaluate the inhibitory effect of compounds at different concentrations against Pf3D7 and PfRKL-9.
SYBR green I based fluorescence assay was performed to measure the growth inhibition effect of the 26 compounds and further dose dependent assay against Pf3D7, and PfRKL-9 (Indian field strain, source- NIMR, New Delhi, India) was carried out at different concentrations. […] Parasitized erythrocytes were treated with different concentrations of compounds ranging from 1 µM to 10 µM, whereas DMSO worked as a control. Triplicate wells of parasitized erythrocytes treated with compounds were seeded in 96 well microtiter plate following incubation at 37 °C for one cycle of parasite growth. […] Growth inhibition (%) was calculated as follows: % Inhibition = [1 − % Parasitemia (Treatment)/% Parasitemia (Control)] *100. Data were expressed as mean ± SD.

Q: Which IC50 does the source give for `CCN(CC)CCCC(C)Nc1ccnc2cc(Cl)ccc12` (centres unmarked) [chloroquine, reference compound] here?
A: The IC50 was 0.025 µM.

same assay, conditions: Plasmodium falciparum; 1 µM, asynchronous culture, one intraerythrocytic cycle (Fig. S1); read-out: inhibition against Pf3D7 at 1 µM

Q: With `CCCSC[C@@H]1[C@@H](O[Si](C)(C)C(C)(C)C)[C@H](n2ccc(=O)[nH]c2=O)O[C@@H]1CO[Si](C)(C)C(C)(C)C` [Compound 10] as the compound, how does the inhibition at 1 µM read?
A: Its inhibition at 1 µM is 5 to 25%.

Q: For `CC(C)(C)[Si](C)(C)OC[C@H]1O[C@@H](n2ccc(=O)[nH]c2=O)[C@H](O[Si](C)(C)C(C)(C)C)[C@H]1CSCc1ccc2ccccc2c1` [Compound 11, 1-[3’-Deoxy-3’-C-(2-naphtyl)methylsulfanylmethyl-2’,5’-di-O-(tert-butyldimethylsilyl)-β-D-xylofuranosyl]-uracil], which inhibition at 1 µM is on record?
A: The inhibition at 1 µM was 5 to 25%.

Q: How did the inhibition at 1 µM turn out when `CC(=O)OC[C@H]1O[C@@H](SC[C@@H]2[C@@H](O[Si](C)(C)C(C)(C)C)[C@H](n3ccc(=O)[nH]c3=O)O[C@@H]2CO[Si](C)(C)C(C)(C)C)[C@@H](OC(C)=O)[C@@H](OC(C)=O)[C@@H]1OC(C)=O` [Compound 15, 1-[3’-Deoxy-3’-C-(-2,3,4,6-tetra-O-acetyl-β-D-mannopyranosyl-sulfanylmethyl)-2’,5’-di-O-(tert-butyldimethylsilyl)-β-D-xylofuranosyl]-uracil] was run?
A: Its inhibition at 1 µM is ~50%.

Q: With `CCCCCCCCCCSC[C@@H]1[C@@H](O[Si](C)(C)C(C)(C)C)[C@H](n2cc(C)c(=O)[nH]c2=O)O[C@@H]1CO[Si](C)(C)C(C)(C)C` [Compound 19] as the compound, how does the inhibition at 1 µM read?
A: Its inhibition at 1 µM is 5 to 25%.

same assay, conditions: screen at 1 µM and 10 µM, vs untreated control (Fig. S1)

Q: `Cc1cn([C@@H]2O[C@H](CN3C[C@@H](CN4C[C@@H](COC(c5ccccc5)(c5ccccc5)c5ccccc5)O[C@@H](n5cc(C)c(=O)[nH]c5=O)C4)O[C@@H](n4ccc(=O)[nH]c4=O)C3)[C@H]3OC(C)(C)O[C@H]32)c(=O)[nH]c1=O` [Compound 4] was tested. Which “growth inhibition against Pf3D7 (in words)” value (from here on “growth inhibition”) did it give?
A: Its value is “good/excellent inhibitory effect”.

Q: For `CC1(C)O[C@@H]2[C@H](O1)[C@H](CS[C@@H]1O[C@H](CO)[C@@H](O)[C@H](O)[C@H]1O)O[C@H]2n1cnc2c(NC(c3ccccc3)(c3ccccc3)c3ccccc3)ncnc21` [Compound 8, 1-[2’,3’-O-Isopropylidene-5’-S-(β-D-glucopyranosyl)-5’-thio-α-L-lyxofuranosyl]-N-trityl-adenine], which “growth inhibition” value is on record?
A: The value was “did not significantly affect the antimalarial activity”.

Q: With `CC(=O)OC[C@H]1O[C@@H](SC[C@@H]2O[C@@H](n3cnc4c(N)ncnc43)[C@H](O)[C@@H]2O)[C@H](OC(C)=O)[C@@H](OC(C)=O)[C@@H]1OC(C)=O` [Compound 9, 1-[5’-S-(2,3,4,6-Tetra-O-acetyl-β-D-glucopyranosyl)-5’-thio-α-L-lyxofuranosyl]-adenine] as the compound, how does the “growth inhibition” value read?
A: The value was “significant decrease in growth inhibitiory effect”.

Q: With `COC(=O)[C@H](CSC[C@@H]1[C@@H](O[Si](C)(C)C(C)(C)C)[C@H](n2ccc(=O)[nH]c2=O)O[C@@H]1CO[Si](C)(C)C(C)(C)C)NC(=O)OCC1c2ccccc2-c2ccccc21` [Compound 12, 1-[3’-Deoxy-3’-C-(N-Fmoc-cysteinemethyl ester)thiylmethyl-2’,5’-di-O-(tert-butyldimethylsilyl)-β-D-xylofuranosyl]-uracil] as the compound, how does the “growth inhibition” value read?
A: The value was “good/excellent inhibitory effect”.

Q: With `CC(=O)OC[C@H]1O[C@@H](SC[C@@H]2[C@@H](O[Si](C)(C)C(C)(C)C)[C@H](n3ccc(=O)[nH]c3=O)O[C@@H]2CO[Si](C)(C)C(C)(C)C)[C@@H](OC(C)=O)[C@@H](OC(C)=O)[C@@H]1OC(C)=O` [Compound 15, 1-[3’-Deoxy-3’-C-(-2,3,4,6-tetra-O-acetyl-β-D-mannopyranosyl-sulfanylmethyl)-2’,5’-di-O-(tert-butyldimethylsilyl)-β-D-xylofuranosyl]-uracil] as the compound, how does the “growth inhibition” value read?
A: Its value is “more moderate growth inhibitory effect”.

Q: Which “growth inhibition” value does the source give for `CCCCSC[C@H]1[C@@H]2O[Si](C(C)C)(C(C)C)O[Si](C(C)C)(C(C)C)OC[C@H]2O[C@H]1n1ccc(=O)[nH]c1=O` [Compound 20, 2’-Deoxy-2’-C-butylsulfanylmethyl-3’,5’-O-(1,1,3,3-tetraisopropyldisiloxane-1,3-diyl)-β-D-arabinofuranosyl-uracil] here?
A: The value was “good/excellent inhibitory effect”.
